# Measurements reported in patent publication US20180147183A1, “USE OF R-OXIRACETAM IN PHARMACEUTICAL FIELD” (Chongqing Runze Pharmaceutical Co., Ltd., priority 2015, published 2018).
# “And” between values parts separate entries of the source, which are not always exact repeats. Equal values may be shown once. Marks after values point to notes of the source that are not given here.
# What was measured:
# [1] = Pharmacokinetics and bioavailability in dogs, plasma determined by LC-MS; type: in vivo, dog
# Procedure: A. The Pharmacokinetics of R-Oxiracetam In Vivo and Studies of Bioavailability
# 4 Determination Methods of Oxiracetam and R-Oxiracetam in Plasma by LC-MS
# 4.1 Chromatographic Conditions
# Mobile phase: methanol: water (5:95)
# Column: ZORBAX SB-Aq (2.1×100 mm 3.5μ)
# Column temperature: 30° C.;
# Injection volume: […] 4.2 Mass Spectrometry Detection Parameters
# Mass spectrometry ionization method: electrospray ionization (ESI); ion polarity Positive; scanning mode for multiple reactions monitoring (MRM); scanning time of 100 ms. The ionic reactions used for quantitative analysis were m/z (oxiracetam) m/z 159.0→m/z 113.9 and m/z 143.1→m/z 126.0 (piracetam), respectively.
# 20 μL of the drug-containing the plasma sample is taken in a 1.5 mL Eppendorf tube. 20 μL of piracetam (20 μg/mL) of the internal standard solution is added, and mixed by the vortex mixer for 30s. Then, 500 μL of acetonitrile is added thereto, vortex shaken for 5 min and centrifugated at 16000 rpm for 10 min. The supernatant from the centrifugation was passed through 1 ml of SPE C 18E column and the filtrate was collected, put into 38° C. constant temperature water bath and dried by nitrogen gas. 300 μL of mobile phase was dissolved and the injection volume was 10 μL.
# 20 μL of blank dog plasma was added into the working solution prepared from the oxiracetam standard. The concentrations of oxiracetam in the plasma were 0.167, 0.33, 0.37, 1.33, 2.67, 4.0, 6.67, 13.33 and 26.67 μg/mL, respectively. A sample was made for each concentration respectively according to the procedures“4.4 Extraction of plasma samples”. The ratio of the peak area (As) of oxiracetam to the peak area (Ai) of the internal standard piracetam (f=As/Ai) were calculated, and perform linear regression using the concentration (C) to the ratio (f). The weight parameter 1/x, and the oxiracetam regression equation: y=5.2117X−0.76985 (r=0.9970, weight 1/x).
# 20 μL of blank dog plasma was added into the working solution prepared from the R-oxiracetam standard. The concentrations of R-oxiracetam in the plasma were 0.167, 0.33, 0.37, 1.33, 2.67, 4.0, 6.67, 13.33 and 26.67 μg/mL, respectively. A sample was made for each concentration respectively according to the procedures “4.4 Extraction of plasma samples”. The ratio of the peak area (As) of R-oxiracetam to the peak area (Ai) of the internal standard piracetam (f=As/Ai) were calculated, and perform linear regression using the concentration (C) to the ratio (f). The weight parameter 1/x, and the oxiracetam regression equation: y=1.6811X−0.031244(r=0.9949, weight 1/x).
# [2] = tested on: lithium chloride-pilocarpine epilepsy model rat; assay: Lithium chloride-pilocarpine rat epilepsy model, prophylactic administration; type: in vivo, SD rats; details: 10 rats; for mortality rate: within 1 to 7 days after modeling
# Text: Stages: epileptic seizures evaluation are categorized by Racine Stages
# Stage 0: no signs of any seizure;
# Stage I: staring, head and face slightly trembling;
# Stage II: head nodding or wet dog-like shaking;
# Stage III: forelimb limit convulsions;
# Stage IV: full-body ankylosing convulsions with a standing hind limb;
# Stage V: full-body ankylosing clonic seizures with standing with fell;
# Partial epilepsy seizure occurs when any one of Stage Ito Stage III appears;
# Generalized epilepsy seizure occurs when Stage IV or Stage V appears;
# Status epilepticus (SE) occurs when Stage IV or Stage V lasts 30 minutes.
# The rat epilepsy models were treated with lithium chloride-pilocarpine and used levetiracetam as positive control. The duration of acute seizures of lithium chloride-pilocarpine epilepsy model rat was selected as the observation time, and prophylactic administration was used.
# Animals were randomly divided into 4 groups, 10/group. Levetiracetam was selected as a positive control, 1.5 times of clinical dose were chosen, that is, 150 mg/kg. The clinical dose of an adult is 800 mg/times, twice daily, that is, 1600 mg/60 kg, 26.7 mg/kg. The dose of a rat is converted to 160 mg/kg according to body surface area. R-oxiracetam and levorotatory oxiracetam were selected half of the dose, that is, 80 mg/kg, and 1.5 times is 120 mg/kg. The dose was 1 ml/100 g, and the rats were treated with continuous administration for 7 days. As levetiracetam administration of 1.3 h (80 min), the plasma concentration peak, so we choose the last 80 minutes after the last administration of modeling. As administration of levetiracetam for 1.3 h (80 min), the plasma concentration peak was reached, so each group was selected after the last 80 minutes after the start of modeling.
# Modeling method: After several previous test, the following modeling method was chosen: Animal ip. Lithium chloride 3 mmol/kg (1.5 ml/L) 127 mg/kg (12.7 mg/ml, 1 ml/100 g body weight), 24 h, 37.5 mg/kg pilocarpine three times ip. mg/kg (2.5 mg/ml, 0.5 ml/100 g body weight) at intervals of 10 minutes. […]
# [3] = cited from earlier work
# [4] = tested on: Pentetrazol (PTZ) ignited rat epilepsy model; assay: Pentetrazol (PTZ)-ignited rat epilepsy model; type: in vivo, SD rats; details: for Seizure latency (X ± SD) / occurrence rates of stage IV or above seizures: 500 mg/kg daily
# Procedure: Rats were injected intraperitoneally with PTZ at a dose of 35 mg/kg (7 mg/ml, 0.5 ml/100 g body weight) for sub-convulsions three times weekly. The animals are weighed before each ip, and observed for behavioral changes after ip. within 1-2 h. Behavioral scoring was carried out according to the revised Racine score. Three consecutive occurrences of seizures of stage IV and above indicate successful ignition.
# The animals successfully ignited were chosen to be grouped. The animals were randomly divided into 4 groups, 8-10/group. […] 3 times of clinical dose were chosen, that is, 500 mg/kg. […] The dosage is 1 ml/100 g, continuous intragastrical administration of 10 days. Specific dose settings are as follows:
# PTZ 35 mg/kg. The animals are observed for behavioral changes within 2 h. Behavioral scoring was carried out according to the revised Racine score, continuous administration for 10 days, grading standards as mentioned above.
# The seizures were recorded daily ip PTZ within 2 h. The seizure levels, latencies, mortality were recorded, and compared with the model control group.
# [5] = 150 mg/kg for 7 days before modeling
# [6] = 120 mg/kg for 7 days before modeling
compound,measurement,setting,value
NC(=O)CN1CC(O)CC1=O (racemic) [oxiracetam],Concentration in dog blood C,"[1]; Time 0 h, individual dogs, one table per dog",0 ng/mL
same,Concentration in dog blood C,"[1]; Time 0.25 h, individual dogs, one table per dog",5123 ng/mL and -4948 ng/mL and 7540 ng/mL and -4135 ng/mL and 5092 ng/mL
same,Concentration in dog blood C,"[1]; Time 0.5 h, individual dogs, one table per dog",41650 ng/mL and 36440 ng/mL and 42030 ng/mL and 41740 ng/mL and 42350 ng/mL
same,Concentration in dog blood C,"[1]; Time 1 h, individual dogs, one table per dog",106427.1 ng/mL and 101410.1 ng/mL and 79361 ng/mL and 58870 ng/mL and 139963.8 ng/mL and 290065.6 ng/mL
same,Concentration in dog blood C,"[1]; Time 1.25 h, individual dogs, one table per dog",104196 ng/mL and 77730 ng/mL and 107177.3 ng/mL and 68450 ng/mL and 302273 ng/mL and 142365.9 ng/mL
same,Concentration in dog blood C,"[1]; Time 1.5 h, individual dogs, one table per dog",122326.7 ng/mL and 104856.7 ng/mL and 96860 ng/mL and 192364.2 ng/mL and 186435.5 ng/mL
same,Concentration in dog blood C,"[1]; Time 2 h, individual dogs, one table per dog",161110.6 ng/mL and 146146.6 ng/mL and 100650 ng/mL and 207535.1 ng/mL and 137414 ng/mL and 228058.3 ng/mL
same,Concentration in dog blood C,"[1]; Time 4 h, individual dogs, one table per dog",52390 ng/mL and 40540 ng/mL and 28940 ng/mL and 42680 ng/mL and 21070 ng/mL and 33010 ng/mL
same,Concentration in dog blood C,"[1]; Time 6 h, individual dogs, one table per dog",8396 ng/mL and 4367 ng/mL and 4934 ng/mL and 7743 ng/mL and 29760 ng/mL and 8301 ng/mL
same,Concentration in dog blood C,"[1]; Time 8 h, individual dogs, one table per dog",-3894 ng/mL and -4318 ng/mL and -4781 ng/mL and -745.6 ng/mL and -465.7 ng/mL
same,Concentration in dog blood C,"[1]; Time 12 h, individual dogs, one table per dog",-4730.8 ng/mL and -4338 ng/mL and -8257 ng/mL and -2959 ng/mL and -6329 ng/mL and -958.4 ng/mL
same,Concentration in dog blood C,"[1]; Time 24 h, individual dogs, one table per dog",0 ng/mL and 21660 ng/mL
same,concentration at 0 h,"[1]; dog, plasma, Time 0 h, individual dogs, one table per dog, read-out: Concentration in dog blood C",0 ng/mL
same,concentration at 0.25 h,"[1]; dog, plasma, Time 0.25 h, individual dogs, one table per dog, read-out: Concentration in dog blood C",4890 ng/mL
same,concentration at 0.5 h,"[1]; dog, plasma, Time 0.5 h, individual dogs, one table per dog, read-out: Concentration in dog blood C",28200 ng/mL
same,concentration at 1.5 h,"[1]; dog, plasma, Time 1.5 h, individual dogs, one table per dog, read-out: Concentration in dog blood C",148000 ng/mL
same,concentration at 8 h,"[1]; dog, plasma, Time 8 h, individual dogs, one table per dog, read-out: Concentration in dog blood C",3120 ng/mL
same,Cmax,"[1]; dog, plasma, dogs, mean ± SD",202000 ± 79500 ng/mL
CC[C@@H](C(N)=O)N1CCCC1=O [Levetiracetam],Latency Stage I,[2]; [5],17.6 ± 4.1 min
same,Latency Stage II,[2]; [5],22.6 ± 5.8 min
same,Latency Stage III,[2]; [5],34.6 ± 9.4 min
same,Latency Stage IV,[2]; [5],33.6 ± 8.3 min
same,Latency Stage V,[2]; [5],74.3 ± 24.3 min
same,Number of Deaths,[2]; [5],5
same,Number of SE Animals,[2]; [5],7
same,Number of seizures Stage I,[2]; [5],1.8 ± 0.8 times
same,Number of seizures Stage II,[2]; [5],4.4 ± 3.7 times
same,Number of seizures Stage III,[2]; [5],3.6 ± 2.3 times
same,Occurrence rate Stage I,[2]; [5],10%
same,Occurrence rate Stage II,[2]; [5],9%
same,Occurrence rate Stage III,[2]; [5],8%
same,Occurrence rate Stage IV,[2]; [5],7%
same,Occurrence rate Stage V,[2]; [5],7%
same,duration Stage IV,[2]; [5],23.3 ± 6.6 min
same,duration Stage V,[2]; [5],63.3 ± 19.0 min
same,mortality rate,[2]; [5],50%
same,time of plasma concentration peak after administration,[3]; in vivo,1.3 h
NC(=O)CN1C[C@@H](O)CC1=O [S-oxiracetam],Latency Stage I,[2]; [6],16.9 ± 5.4 min
same,Latency Stage II,[2]; [6],26.7 ± 6.5 min
same,Latency Stage III,[2]; [6],35.4 ± 5.8 min
same,Latency Stage IV,[2]; [6],37.8 ± 7.4 min
same,Latency Stage V,[2]; [6],64.5 ± 23.2 min
same,Number of Deaths,[2]; [6],3
same,Number of SE Animals,[2]; [6],4
same,Number of seizures Stage I,[2]; [6],2.2 ± 1.0 times
same,Number of seizures Stage II,[2]; [6],5.2 ± 3.1 times
same,Number of seizures Stage III,[2]; [6],5.6 ± 4.2 times
same,Occurrence rate Stage I,[2]; [6],10%
same,Occurrence rate Stage II,[2]; [6],10%
same,Occurrence rate Stage III,[2]; [6],5%
same,Occurrence rate Stage IV,[2]; [6],4%
same,Occurrence rate Stage V,[2]; [6],4%
same,duration Stage IV,[2]; [6],27.5 ± 12.1 min
same,duration Stage V,[2]; [6],79.8 ± 29.5 min
same,mortality rate,[2]; [6],30%
"CCCC(CCC)C(=O)[O-].[Na+] [Sodium valproate, reference compound]",bioavailability,[3]; oral administration,~100%
same,Seizure latency (X ± SD),[4]; D1,4.00 ± 1.41 m
same,occurrence rates of stage IV or above seizures,[4]; D1,4/6 (66.7) %
same,Seizure latency (X ± SD),[4]; D2,5.67 ± 2.25 m
same,occurrence rates of stage IV or above seizures,[4]; D2,3/6(50.0) %
same,Seizure latency (X ± SD),[4]; D3,5.67 ± 1.37 m
same,occurrence rates of stage IV or above seizures,[4]; D3,3/6 (50.0) %
same,Seizure latency (X ± SD),[4]; D4,6.33 ± 1.63 m
same,occurrence rates of stage IV or above seizures,[4]; D4,2/6 (33.3) %
same,occurrence rates of stage IV or above seizures,[4]; D5,2/6 (33.3) %
same,occurrence rates of stage IV or above seizures,[4]; D6,2/6 (33.3) %
same,occurrence rates of stage IV or above seizures,[4]; D7,1/6* (16.7) %
same,occurrence rates of stage IV or above seizures,[4]; D8,0/6** (0) %
same,occurrence rates of stage IV or above seizures,[4]; D9,1/6 (16.7) %
same,Seizure latency (X ± SD),[4]; D10,8.33 ± 0.82 m
same,occurrence rates of stage IV or above seizures,[4]; D10,0/6* (0) %
same,mortality rate,"[4]; 500 mg/kg intragastric, 10 days",0%
same,Numbers of deaths (Number),"[4]; 500 mg/kg intragastric, 10 days, 6 animals",0
